Measurements: PubChem BioAssay (NCI)
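How tested: cells in 96-well plates exposed to compound for 48 hours at five concentrations. The concentration for 50% growth inhibition is given as GI50. TGI: total growth inhibition.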

Columns and labels:
Test in all cases: NCI anticancer screen, dose series, 48 h
MDA-MB-435 = test system: MDA-MB-435
BT-549 breast = test system: BT-549 breast
HCC-2998 colon = test system: HCC-2998 colon
KM12 colon = test system: KM12 colon
MALME-3M melanoma = test system: MALME-3M melanoma
SN12C renal = test system: SN12C renal
MCF7 breast = test system: MCF7 breast
OVCAR-4 ovarian = test system: OVCAR-4 ovarian
HT29 colon = test system: HT29 colon
ACHN renal = test system: ACHN renal
SK-OV-3 ovarian = test system: SK-OV-3 ovarian
SW-620 colon = test system: SW-620 colon
SK-MEL-2 melanoma = test system: SK-MEL-2 melanoma
786-0 renal = test system: 786-0 renal
MOLT-4 leukemia = test system: MOLT-4 leukemia
CAKI-1 renal = test system: CAKI-1 renal
IGROV1 ovarian = test system: IGROV1 ovarian
HOP-92 NSCLC = test system: HOP-92 NSCLC
HCT-116 colon = test system: HCT-116 colon
HL-60(TB) leukemia = test system: HL-60(TB) leukemia
OVCAR-3 ovarian = test system: OVCAR-3 ovarian
NCI-H460 lung = test system: NCI-H460 lung
UO-31 renal = test system: UO-31 renal
U251 CNS = test system: U251 CNS
SR leukemia = test system: SR leukemia
A498 renal = test system: A498 renal
COLO 205 colon = test system: COLO 205 colon
K-562 leukemia = test system: K-562 leukemia
SNB-75 CNS = test system: SNB-75 CNS

In the case of O=C1NCN(c2ccccc2)C12CCN(CCCC(c1ccc(F)cc1)c1ccc(F)cc1)CC2, the TGI (MDA-MB-435) is reported as 3.77 µM, the GI50 (BT-549 breast) is reported as 2.53 µM and the TGI (BT-549 breast) is reported as 7.94 µM. The GI50 (HCC-2998 colon) was 2.24 µM, the TGI (HCC-2998 colon) was 4.16 µM and the GI50 (KM12 colon) was 2.14 µM. For the same compound, the TGI (KM12 colon) was 4.38 µM, the GI50 (MALME-3M melanoma) was 1.66 µM and the TGI (MALME-3M melanoma) was 3.46 µM. For the same compound, the GI50 (SN12C renal) was 2.45 µM, the TGI (SN12C renal) was 8.36 µM and the GI50 (MCF7 breast) was 1.88 µM. It also gave a TGI (MCF7 breast) of 5.65 µM, a GI50 (OVCAR-4 ovarian) of 2.13 µM and a TGI (OVCAR-4 ovarian) of 9.98 µM. For the same compound, the GI50 (HT29 colon) was 1.51 µM, the TGI (HT29 colon) was 3.22 µM and the GI50 (ACHN renal) was 2.79 µM. For the same compound, the TGI (ACHN renal) was 7.23 µM, the GI50 (SK-OV-3 ovarian) was 4.2 µM and the TGI (SK-OV-3 ovarian) was 14.7 µM. It also gave a GI50 (SW-620 colon) of 2.06 µM, a TGI (SW-620 colon) of 4.58 µM and a GI50 (SK-MEL-2 melanoma) of 1.56 µM. The TGI (SK-MEL-2 melanoma) was 2.98 µM, the GI50 (786-0 renal) was 1.67 µM and the TGI (786-0 renal) was 3.52 µM. For the same compound, the GI50 (MOLT-4 leukemia) was 2.31 µM, the TGI (MOLT-4 leukemia) was 5.99 µM and the GI50 (CAKI-1 renal) was 2.51 µM. It also gave a TGI (CAKI-1 renal) of 7.44 µM, a GI50 (IGROV1 ovarian) of 2.36 µM and a TGI (IGROV1 ovarian) of 9.89 µM. It also gave a GI50 (HOP-92 NSCLC) of 0.397 µM, a TGI (HOP-92 NSCLC) of 2.62 µM and a GI50 (HCT-116 colon) of 1.58 µM. It also gave a TGI (HCT-116 colon) of 2.96 µM, a GI50 (HL-60(TB) leukemia) of 1.82 µM and a TGI (HL-60(TB) leukemia) of 4 µM. It also gave a GI50 (OVCAR-3 ovarian) of 2 µM, a TGI (OVCAR-3 ovarian) of 3.98 µM and a GI50 (NCI-H460 lung) of 1.68 µM. For the same compound, the TGI (NCI-H460 lung) was 3.08 µM, the GI50 (UO-31 renal) was 1.28 µM and the TGI (UO-31 renal) was 3.96 µM. The GI50 (U251 CNS) was 1.55 µM, the TGI (U251 CNS) was 2.91 µM and the GI50 (SR leukemia) was 0.704 µM. It also gave a TGI (SR leukemia) of 3.74 µM, a GI50 (A498 renal) of 1.18 µM and a TGI (A498 renal) of 4.94 µM. It also gave a GI50 (COLO 205 colon) of 1.72 µM, a TGI (COLO 205 colon) of 3.24 µM and a GI50 (K-562 leukemia) of 1.71 µM. It also gave a TGI (K-562 leukemia) of 4.11 µM, a GI50 (SNB-75 CNS) of 2.07 µM and a TGI (SNB-75 CNS) of 14.2 µM.
